Measured values taken from PubChem BioAssay AID248 (DTP/NCI, 2004).
Where “and” joins values, the source holds several entries; their conditions need not be identical. Equal entries are not always repeated. Inconclusive results and toxic doses are left out. Cut-off read from the data, not from the text of the source: active = T/C of 150% or more; inactive = T/C below 125%.

System: L1210 leukemia ip in BDF1 mice, survival T/C
Test: NCI In Vivo Anticancer Drug Screen. Data for tumor model L1210 Leukemia (intraperitoneal) in B6D2F1 (BDF1) mice
Details: endpoint: mean survival time, higher = longer survival
Procedure, shortened: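 Transplanted-tumor mice were given test agent; controls received vehicle only. Survival readings from the two groups were divided (treated over control).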

[1] = dose: 25.0 mg/kg/injection, schedule: Q01DX009 (ip), vehicle: Klucel (hydroxypropylcellulose) (HPC)
[2] = dose: 100.0 mg/kg/injection, schedule: Q01DX009 (ip), vehicle: Klucel (hydroxypropylcellulose) (HPC)
[3] = dose: 100.0 mg/kg/injection, schedule: Q04DX003 (ip), vehicle: Klucel (hydroxypropylcellulose) (HPC)
[4] = dose: 200.0 mg/kg/injection, schedule: Q04DX003 (ip), vehicle: Klucel (hydroxypropylcellulose) (HPC)
[5] = dose: 400.0 mg/kg/injection, schedule: Q04DX003 (ip), vehicle: Klucel (hydroxypropylcellulose) (HPC)
[6] = dose: 200.0 mg/kg/injection, schedule: Q01DX009 (ip), vehicle: Klucel (hydroxypropylcellulose) (HPC)
[7] = dose: 400.0 mg/kg/injection, schedule: Q01DX009 (ip), vehicle: Klucel (hydroxypropylcellulose) (HPC)
[8] = dose: 100.0 mg/kg/injection, schedule: Q01DX001 (ip), vehicle: carboxymethylcellulose (CMC)
[9] = dose: 200.0 mg/kg/injection, schedule: Q01DX001 (ip), vehicle: carboxymethylcellulose (CMC)
[10] = dose: 400.0 mg/kg/injection, schedule: Q01DX001 (ip), vehicle: carboxymethylcellulose (CMC)
[11] = dose: 50.0 mg/kg/injection, schedule: Q01DX009 (ip), vehicle: Klucel (hydroxypropylcellulose) (HPC)
[12] = dose: 75.0 mg/kg/injection, schedule: Q01DX001 (ip), vehicle: saline
[13] = dose: 150.0 mg/kg/injection, schedule: Q01DX001 (ip), vehicle: saline
[14] = dose: 100.0 mg/kg/injection, schedule: Q01DX009 (ip), vehicle: carboxymethylcellulose (CMC)
[15] = dose: 100.0 mg/kg/injection, schedule: Q04DX002 (ip), vehicle: carboxymethylcellulose (CMC)
[16] = dose: 100.0 mg/kg/injection, schedule: Q04DX003 (ip), vehicle: carboxymethylcellulose (CMC)
[17] = dose: 200.0 mg/kg/injection, schedule: Q01DX009 (ip), vehicle: carboxymethylcellulose (CMC)
[18] = dose: 200.0 mg/kg/injection, schedule: Q04DX002 (ip), vehicle: carboxymethylcellulose (CMC)
[19] = dose: 200.0 mg/kg/injection, schedule: Q04DX003 (ip), vehicle: carboxymethylcellulose (CMC)
[20] = dose: 400.0 mg/kg/injection, schedule: Q04DX002 (ip), vehicle: carboxymethylcellulose (CMC)
[21] = dose: 400.0 mg/kg/injection, schedule: Q04DX003 (ip), vehicle: carboxymethylcellulose (CMC)

Measured: T/C

Nc1nc(=S)c2[nH]c(N=Nc3ccc(S(=O)(=O)Nc4nccs4)cc3)nc2[nH]1
inactive: dose: 6.25 mg/kg/injection, schedule: Q01DX009 (ip), vehicle: Klucel (hydroxypropylcellulose) (HPC) 92 % of control | dose: 12.5 mg/kg/injection, schedule: Q01DX009 (ip), vehicle: Klucel (hydroxypropylcellulose) (HPC) 92 % of control | [1] 100 % of control | dose: 35.0 mg/kg/injection, schedule: Q01DX001 (ip), vehicle: Klucel (hydroxypropylcellulose) (HPC) 119 % of control | dose: 100.0 mg/kg/injection, schedule: Q01DX001 (ip), vehicle: Klucel (hydroxypropylcellulose) (HPC) 123 % of control | [2] 88 % of control

O=C(Nc1ccc(C(=O)O)c(O)c1)Oc1ccccc1
inactive: [3] 90 % of control | [4] 98 % of control | [5] 107 % of control

COc1ccc(CC[n+]2ccc(C#N)c(C(C)=O)c2)cc1OC
inactive: dose: 75.0 mg/kg/injection, schedule: Q01DX001 (ip), vehicle: carboxymethylcellulose (CMC) 106 % of control | dose: 150.0 mg/kg/injection, schedule: Q01DX001 (ip), vehicle: carboxymethylcellulose (CMC) 105 % of control

CC(=O)NC1CCC(CC2CCCCC2)CC1 (stereo unspecified)
inactive: [2] 101 % of control | [3] 93 % of control and 102 % of control | [6] 116 % of control | [4] 103 % of control and 93 % of control | [5] 114 % of control and 93 % of control

CCCCCCCCCCCCCCCCCC
inactive: dose: 100.0 mg/kg/injection, schedule: Q04DX002 (ip), vehicle: other 96 % of control | dose: 200.0 mg/kg/injection, schedule: Q04DX002 (ip), vehicle: other 92 % of control

O=[N+]([O-])c1ccc2cn[nH]c2c1
inactive: [2] 112 % of control | [3] 95 % of control | [6] 106 % of control | [4] 92 % of control | [7] 107 % of control | [5] 96 % of control

c1ccc2c(CN3CCCCC3)c[nH]c2c1
inactive: dose: 50.0 mg/kg/injection, schedule: Q01DX009 (ip), vehicle: saline with Tween-80 108 % of control | dose: 100.0 mg/kg/injection, schedule: Q01DX009 (ip), vehicle: saline with Tween-80 88 % of control | dose: 100.0 mg/kg/injection, schedule: Q04DX003 (ip), vehicle: saline with Tween-80 93 % of control | dose: 200.0 mg/kg/injection, schedule: Q04DX003 (ip), vehicle: saline with Tween-80 88 % of control

COC(=O)/C=C(\C)Nc1ccc(NC(C)=O)cc1
inactive: dose: 25.0 mg/kg/injection, schedule: Q01DX009 (ip), vehicle: acetone 101 % of control | dose: 50.0 mg/kg/injection, schedule: Q01DX009 (ip), vehicle: acetone 101 % of control | dose: 100.0 mg/kg/injection, schedule: Q01DX009 (ip), vehicle: acetone 94 % of control | dose: 100.0 mg/kg/injection, schedule: Q04DX003 (ip), vehicle: acetone 94 % of control | dose: 200.0 mg/kg/injection, schedule: Q04DX003 (ip), vehicle: acetone 96 % of control

Cc1cc(Cl)sc1Cl
inactive: [8] 98 % of control | [9] 93 % of control | [10] 92 % of control

NC(N)=NC(N)=Nc1ccc2c(Cl)c(Cl)ccc2c1
inactive: dose: 2.5 mg/kg/injection, schedule: Q01DX009 (ip), vehicle: saline sonified 92 % of control | dose: 5.0 mg/kg/injection, schedule: Q01DX009 (ip), vehicle: saline sonified 101 % of control | dose: 10.0 mg/kg/injection, schedule: Q01DX009 (ip), vehicle: saline sonified 101 % of control | dose: 12.5 mg/kg/injection, schedule: Q04DX003 (ip), vehicle: saline with Tween-80 105 % of control | dose: 25.0 mg/kg/injection, schedule: Q04DX003 (ip), vehicle: saline with Tween-80 114 % of control | dose: 50.0 mg/kg/injection, schedule: Q04DX003 (ip), vehicle: saline with Tween-80 100 % of control | dose: 100.0 mg/kg/injection, schedule: Q04DX003 (ip), vehicle: saline sonified 101 % of control

O=[N+]([O-])/C=C/c1ccc(Cl)cc1
inactive: [1] 97 % of control | [11] 103 % of control

O=C(O)C(Cl)Cc1cnc[nH]1 (stereo unspecified)
inactive: dose: 50.0 mg/kg/injection, schedule: Q01DX009 (ip), vehicle: saline 100 % of control | dose: 100.0 mg/kg/injection, schedule: Q01DX009 (ip), vehicle: saline 100 % of control | dose: 200.0 mg/kg/injection, schedule: Q01DX009 (ip), vehicle: saline 103 % of control

CCOC(=O)Nc1ccc([N+](=O)[O-])cc1
inactive: [2] 87 % of control | [3] 99 % of control | [6] 99 % of control | [4] 110 % of control | [7] 97 % of control | [5] 89 % of control

OC(c1ccccc1)(c1ccc(-c2ccccc2)cc1)c1cccc2ccccc12 (stereo unspecified)
inactive: [12] 92 % of control | [13] 92 % of control | dose: 300.0 mg/kg/injection, schedule: Q01DX001 (ip), vehicle: saline 91 % of control

COC(=O)c1ccc2c(ccc[n+]2C)c1
inactive: dose: 37.5 mg/kg/injection, schedule: Q04DX003 (ip), vehicle: saline with Tween-80 96 % of control | [12] 97 % of control | dose: 75.0 mg/kg/injection, schedule: Q04DX003 (ip), vehicle: saline with Tween-80 96 % of control | [13] 90 % of control | dose: 150.0 mg/kg/injection, schedule: Q04DX003 (ip), vehicle: saline with Tween-80 89 % of control

COc1ccc(O)c(C2(O)OC(=O)c3c(OC)cccc32)c1 (stereo unspecified)
inactive: [8] 103 % of control and 111 % of control | [14] 100 % of control and 89 % of control | [15] 102 % of control and 113 % of control | [16] 95 % of control and 100 % of control | [9] 94 % of control and 106 % of control | [17] 104 % of control and 89 % of control | [18] 97 % of control | [19] 94 % of control and 100 % of control | [10] 94 % of control and 103 % of control | [20] 97 % of control and 98 % of control | [21] 95 % of control and 90 % of control

C=CCc1ccc(OC(=O)Nc2cccc(Cl)c2)c(OC)c1
inactive: [14] 98 % of control and 102 % of control | dose: 100.0 mg/kg/injection, schedule: Q04DX002 (ip), vehicle: Klucel (hydroxypropylcellulose) (HPC) 95 % of control | [15] 102 % of control | [16] 101 % of control | [17] 100 % of control and 92 % of control | dose: 200.0 mg/kg/injection, schedule: Q04DX002 (ip), vehicle: Klucel (hydroxypropylcellulose) (HPC) 92 % of control | [18] 112 % of control | [19] 95 % of control | dose: 400.0 mg/kg/injection, schedule: Q01DX009 (ip), vehicle: carboxymethylcellulose (CMC) 95 % of control and 98 % of control | dose: 400.0 mg/kg/injection, schedule: Q04DX002 (ip), vehicle: Klucel (hydroxypropylcellulose) (HPC) 95 % of control | [20] 105 % of control | [21] 100 % of control

CCCCN(CCCC)CCCOc1cc(C)ccc1C(C)C
inactive: dose: 3.0 mg/kg/injection, schedule: Q04DX003 (ip), vehicle: saline 97 % of control | dose: 6.0 mg/kg/injection, schedule: Q04DX003 (ip), vehicle: saline 105 % of control and 106 % of control | dose: 12.0 mg/kg/injection, schedule: Q01DX009 (ip), vehicle: Klucel (hydroxypropylcellulose) (HPC) 102 % of control | dose: 12.0 mg/kg/injection, schedule: Q04DX003 (ip), vehicle: saline 95 % of control and 107 % of control | [1] 93 % of control | dose: 25.0 mg/kg/injection, schedule: Q04DX003 (ip), vehicle: saline 97 % of control and 98 % of control and 105 % of control | [11] 109 % of control | dose: 100.0 mg/kg/injection, schedule: Q04DX003 (ip), vehicle: saline 109 % of control

CCN(Cc1ccncc1)C(=O)C(O)(c1ccccc1)c1ccccc1
inactive: dose: 100.0 mg/kg/injection, schedule: Q01DX001 (ip), vehicle: saline with Tween-80 93 % of control | dose: 200.0 mg/kg/injection, schedule: Q01DX001 (ip), vehicle: saline with Tween-80 88 % of control | dose: 400.0 mg/kg/injection, schedule: Q01DX001 (ip), vehicle: saline with Tween-80 87 % of control
